Data taken from US20090275574A1, “NOVEL COMPOUNDS-300” (ASTRAZENECA AB, priority 2008, published 2009).

Target: T1, cloned human M4 receptor (Homo sapiens, UniProt P08173)
T1 construct: purchased Perkin-Elmer RBHM4M; host or cells: Chinese hamster ovary cells (CHO), membranes
T1 sequence (P08173 1-479): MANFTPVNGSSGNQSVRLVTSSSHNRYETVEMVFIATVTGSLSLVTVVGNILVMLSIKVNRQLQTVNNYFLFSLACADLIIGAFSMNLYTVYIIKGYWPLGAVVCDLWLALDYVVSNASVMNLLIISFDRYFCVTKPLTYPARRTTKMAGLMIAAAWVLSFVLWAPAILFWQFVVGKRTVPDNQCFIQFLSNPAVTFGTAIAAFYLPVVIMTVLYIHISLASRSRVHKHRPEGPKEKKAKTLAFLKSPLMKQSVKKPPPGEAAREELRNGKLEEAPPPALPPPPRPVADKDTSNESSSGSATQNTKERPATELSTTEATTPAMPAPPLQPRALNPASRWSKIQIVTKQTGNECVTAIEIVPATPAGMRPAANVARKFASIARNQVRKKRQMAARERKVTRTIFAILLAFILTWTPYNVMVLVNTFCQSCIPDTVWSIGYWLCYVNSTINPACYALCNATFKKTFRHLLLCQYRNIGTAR
Assay: hM4 receptor GTPγS binding
Format: biochemical
Conditions: CHO membranes expressing hM4, [35S]GTPγS binding
Protocol: hM4 Receptor GTPγS Binding Membranes produced from Chinese hamster ovary cells (CHO) expressing the cloned human M4 receptor (human Muscarinic receptor subtype 4, gene bank access NM_000741), are obtained from Perkin-Elmer (RBHM4M). The membranes are thawed at 37° C., passed 3 times through a 23-gauge blunt-end needle, diluted in the GTPγS binding buffer (50 mM Hepes, 20 mM NaOH, 100 mM NaCl, 1 mM EDTA, 5 mM MgCl2, pH 7.4, 100 μM DTT). The EC50, IC50 and Emax of the compounds of the invention are evaluated from 10-point dose-response curves (three fold concentration range) done in 60 μl in 384-well non-specific binding surface plate (Corning). Ten microliters from the dose-response curves plate (5× concentration) are transferred to another 384 well plate containing 25 μl of the following: 10 μg of hM4 membranes, 500 μg of Flashblue beads (Perkin-Elmer) and GDP 40 μM. An additional 15 μl containing 3.3× (60,000 dpm) of GTPγ^35S (0.4 nM final) are added to the wells resulting in a total well volume of 50 μl. Basal and maximal stimulated [^35S]GTPγS binding are determined in absence and presence of 30 μM final of acetylcholine agonist. The membranes/beads mix are pre-incubated for 15 minutes at room temperature with 40 μM GDP prior to distribution in plates (20 μM final). The reversal of acetylcholine-induced stimulation (10 μM final) of [^35S]GTPγS binding is used to assay the antagonist properties (IC50) of the compounds. The plates are incubated for 60 minutes at room temperature then centrifuged at 400 rpm for 5 minutes. The radioactivity (cpm) is counted in a Trilux (Perkin-Elmer). Values of EC50, IC50 and Emax are obtained using sigmoidal fits of a non-linear curve-fitting program (XLfit version 4.2.2 Excel add-in version 4.2.2 build 18 math 1Q version 2.1.2 build 18) of percent stimulated [^35S]GTPγS binding vs. log(molar ligand). All pEC50 and pIC50 values are reported as arithmetic means±standard error of mean of ‘n’ independent experiments.

Row | Structure (SMILES) | EC50 [µM]
1 | CCOC[C@H]1CC[C@@H](N2CCC(N3C(=O)CO[C@H]4CCCC[C@@H]43)CC2)C1 [Example 42, (4aS,8aS)-4-(1-((1R,3S)-3-(ethoxymethyl)cyclopentyl)piperidin-4-yl)hexahydro-2H-benzo[b][1,4]oxazin-3(4H)-one] | 4.24
2 | CC(C)OCC1CCC(N2CCC(N3C(=O)CO[C@H]4CCC(F)(F)C[C@@H]43)CC2)CC1 (single isomer, unassigned) [Example 38] | > 90
3 | O=C1CO[C@H]2CCCC[C@@H]2N1C1CCN(C2CCC(COCCF)CC2)CC1 (single isomer, unassigned) [Example 24] | > 90
4 | CCCOC1CCC(N2CCC(N3C(=O)CO[C@H]4CCCC[C@@H]43)CC2)CC1 (single isomer, unassigned) [Example 17] | > 90
5 | CCCOCC1CCC(N2CCC(N3C(=O)NC[C@H]4CCCC[C@@H]43)CC2)CC1 (single isomer, unassigned) [Example 01] | > 51.9
6 | O=C1CO[C@H]2CCCC[C@@H]2N1C1CCN(C2CCC(COCC(F)F)CC2)CC1 (single isomer, unassigned) [Example 27] | > 90
7 | CCOC[C@@H]1CC[C@H](N2CCC(N3C(=O)CO[C@H]4CCCC[C@@H]43)CC2)C1 [Example 43, (4aS,8aS)-4-(1-((1S,3R)-3-(ethoxymethyl)cyclopentyl)piperidin-4-yl)hexahydro-2H-benzo[b][1,4]oxazin-3(4H)-one] | > 28.1
8 | CC(C)OCC1CCC(N2CCC(N3C(=O)CO[C@H]4CCC(F)(F)C[C@@H]43)CC2)CC1 (single isomer, unassigned) [Example 37] | > 90
9 | CC(C)OCC1CCC(N2CCC(N3C(=O)CO[C@H]4CCCC[C@@H]43)CC2)CC1 (single isomer, unassigned) [Example 19] | > 43.4
10 | O=C1NC[C@H]2CCCC[C@@H]2N1C1CCN(C2CCC(COCC(F)F)CC2)CC1 (single isomer, unassigned) [Example 51] | > 90
11 | CCOCC1CCC(N2CCC(N3C(=O)CO[C@H]4CCCC[C@@H]43)CC2)CC1 (single isomer, unassigned) [Example 13] | > 23.4
12 | CCCOCC1CCC(N2CCC(N3C(=O)NC[C@H]4CCCC[C@@H]43)CC2)CC1 (single isomer, unassigned) [Example 02] | 0.521
13 | CCOCC1CCC(N2CCC(N3C(=O)CO[C@H]4CCCC[C@@H]43)CC2)C1 (single isomer, unassigned) [Example 44] | 5.36

Other lines, results leading:

Row | EC50 [µM] | Structure (SMILES)
14 | > 90 | O=C1CO[C@H]2CCCC[C@@H]2N1C1CCN(C2CCC(COCC3CC3)CC2)CC1 (single isomer, unassigned) [Example 22]
15 | > 14.7 | CCOCC1CCC(N2CCC(N3C(=O)CO[C@H]4CCCC[C@@H]43)CC2)C1 (single isomer, unassigned) [Example 45]
16 | 0.985 | CCOCC1CCC(N2CCC(N3C(=O)NC[C@H]4CCCC[C@@H]43)CC2)CC1 (mixture of isomers) [Example 08, (4aR,8aS)-1-(1-(4-(ethoxymethyl)cyclohexyl)piperidin-4-yl)octahydroquinazolin-2(1H)-one]
17 | > 11.7 | O=C1COC2CCCC2N1C1CCN([C@H]2CC[C@@H](COCC3CC3)CC2)CC1 (single isomer, unassigned) [Example 48]
18 | > 90 | CCCOC1CCC(N2CCC(N3C(=O)NC[C@H]4CCCC[C@@H]43)CC2)CC1 (single isomer, unassigned) [Example 06]
19 | 4.84 | CCOCC1CCC(N2CCC(N3C(=O)CO[C@H]4CCCC[C@@H]43)CC2)CC1 (single isomer, unassigned) [Example 14]
20 | > 90 | O=C1CO[C@H]2CCCC[C@@H]2N1C1CCN(C2CCC(COCC(F)F)CC2)CC1 (single isomer, unassigned) [Example 26]
21 | > 26.5 | O=C1CO[C@H]2CCCC[C@@H]2N1C1CCN(C2CCC(COCCF)CC2)CC1 (single isomer, unassigned) [Example 25]
22 | > 24.9 | CC(C)OCC1CCC(N2CCC(N3C(=O)CO[C@H]4CCCC[C@@H]43)CC2)CC1 (single isomer, unassigned) [Example 18]
23 | > 90 | O=C1CO[C@H]2CCCC[C@@H]2N1C1CCN(C2CC(COCC3CCC3)C2)CC1 (single isomer, unassigned) [Example 40]
24 | 0.683 | CC(C)OCC1CCC(N2CCC(N3C(=O)NC[C@H]4CCCC[C@@H]43)CC2)CC1 (single isomer, unassigned) [Example 04]
25 | > 33.5 | CC(C)OCC1CCC(N2CCC(N3C(=O)CO[C@H]4CCCC[C@@H]43)CC2)CC1 (mixture of isomers) [Example 15, (4aS,8aS)-4-(1-(4-(isopropoxymethyl)cyclohexyl)piperidin-4-yl)hexahydro-2H-benzo[b][1,4]oxazin-3(4H)-one]
26 | > 90 | CCOCC1CC(N2CCC(N3C(=O)CO[C@H]4CCCC[C@@H]43)CC2)C1 (single isomer, unassigned) [Example 39]
27 | > 90 | O=C1CO[C@H]2CCCC[C@@H]2N1C1CCN(C2CCC(COCC3CC3)CC2)CC1 (single isomer, unassigned) [Example 23]
